Experimental data published in paper PMC6479877, “Development of Chemical Tools to Monitor Human Kallikrein 13 (KLK13) Activity” (International Journal of Molecular Sciences, 2019).
Where a SMILES comes first, the peptide text is derived from it. The star is where a group is joined. Biotin = O=C1N[C@H]2[C@H](CS[C@H]2CCCCC(=O)*)N1; AEA = NCCOCC(=O)O; CH2Cl = ClC*

Tests used:
[1] = biological target: T1, KLK13 (Homo sapiens, UniProt Q9UKR3); assay: Kinetic parameters of substrate hydrolysis by KLK13; format: biochemical; parameters: His6 (the forward primers encode HHHHHH followed by DDDDK; the protein was purified on nickel) (N); made in house; host or cells: Leishmania tarentolae strain T7-TR (LEXSY), secreted to the medium; conditions: KLK13 1.25 × 10^−9 M; for Km / kcat: measured in triplicate, ± SD; for kcat/KM (specificity constant): calculated from kcat and KM
T1 sequence (Q9UKR3 26-277 limits assumed): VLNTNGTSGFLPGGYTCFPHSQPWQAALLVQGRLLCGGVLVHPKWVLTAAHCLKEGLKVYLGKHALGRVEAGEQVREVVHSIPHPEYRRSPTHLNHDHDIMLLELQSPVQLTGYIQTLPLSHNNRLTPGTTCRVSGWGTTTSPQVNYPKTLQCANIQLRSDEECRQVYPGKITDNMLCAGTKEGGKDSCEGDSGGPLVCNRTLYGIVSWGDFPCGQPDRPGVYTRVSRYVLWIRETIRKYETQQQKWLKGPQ
Description: The specificity constant (kcat/KM) was calculated from kcat and KM. The details of kinetic studies and the method of calculating kinetic parameters have been described previously.

[2] = biological target: T1, KLK13; assay: Inhibitory activity of CMK inhibitors / activity-based probes against KLK13; format: biochemical; parameters: His6 (the forward primers encode HHHHHH followed by DDDDK; the protein was purified on nickel) (N); made in house; conditions: progress curves method, irreversible inhibition, inhibitor 0–50 µM, Substrate 2 10 µM, KLK13 10 nM, 37 °C, pH 7.5, mean ± SD of three replicates
Description: The kinetic parameters of inhibition were determined using a progress curve model for irreversible inhibition, as described previously. […] Upon the addition of KLK13 (final concentration 10 nM), the fluorescence of the hydrolyzed substrate was monitored in each sample at excitation and emission wavelengths of 320 and 450 nm, respectively, for 1 h using a microplate reader Gemini EM (Molecular Devices, Berkshire, UK). The reactions were carried out in 200 µL of final volume of 50 mM Tris-Cl (pH 7.5) containing 1 mM EDTA and 0.5 μM heparin at 37 °C. Progress curves were fitted to the resulting data points and then kobs derived from each curve was plotted against inhibitor concentration. Final values of kass were calculated by linear regression and presented as mean ± SD of three independent replicates.

[3] = biological target: T1, KLK13; assay: Detection of KLK13 using biotinylated ABPs (streptavidin-HRP Western blot); format: binding; parameters: His6 (the forward primers encode HHHHHH followed by DDDDK; the protein was purified on nickel) (N); made in house; host or cells: Leishmania tarentolae strain T7-TR (LEXSY), secreted to the medium; conditions: 1 µM probe, TNET buffer, 1 h at 37 °C; twofold dilutions of KLK13 500 to 4 ng
Description: Purified active KLK13 (250 ng) was preincubated with increasing concentrations of Bt-PEG-VRFR-CMK or Bt-VRFR-CMK in TNET buffer (0.1 M Tris-HCl, 150 mM NaCl, 5 mM EDTA, 0.05% Tween-20, pH 7.5) for 1 h at 37 °C. Samples were analyzed by SDS-PAGE followed by wet electrotransfer onto a PVDF membrane (GE Healthcare). Membranes were blocked in 5% BSA in TBS buffer (50 mM Tris-HCl, 0.5 M NaCl, pH 7.5) with 0.1% Tween overnight, at 4 °C, followed by incubation with 1:10,000 diluted Streptavidin-HRP (Sigma Aldrich, S2438, Poznan, Poland) for 2 h at RT. After intensive washing with TBS buffer with 0.1% Tween, the signal was developed with Pierce ECL WB substrate (Thermo Fisher Scientific) and visualized manually using AGFA films (Agfa HealthCare, Mortsel, Belgium). To establish the detection limit, decreasing amounts of active KLK13 (ranging from 3.9-500 ng) were preincubated with 1 µM Bt-PEG-VRFR-CMK in TNET buffer for 1 h at 37 °C and visualized by streptavidin-HRP Western blot as described above.

[4] = biological target: T1, KLK13; assay: Detection limit of KLK13 activity with the substrates; format: biochemical; parameters: His6 (the forward primers encode HHHHHH followed by DDDDK; the protein was purified on nickel) (N); made in house; host or cells: Leishmania tarentolae strain T7-TR (LEXSY), secreted to the medium; conditions: constant amount of substrate, decreasing KLK13; 50 mM Tris-Cl pH 7.5, 1 mM EDTA, 0.5 μM heparin, 37 °C
Description: The detection limit was established by analyzing the correlation between an increase in absorbance/fluorescence and enzyme concentration at constant quantities of each, ABZ-Val-Arg-Phe-Arg-ANB-NH2 (Substrate 1) and ABZ-[…]3-NO2)-NH2 (Substrate 2).
Int. J. Mol. Sci. 2019, 20, x FOR PEER REVIEW 2 of 2
Figure S2. Detection limit and pH optimum of KLK13 as determined for the optimized substrates.
Substrates 1 (A) and 2 (B) were titrated with decreasing amounts of KLK13 in 50 mM Tris-Cl (pH 7.5) buffer containing 1 mM EDTA and 0.5 μM heparin at 37 °C. ( C) pH dependence of KLK13. Processing […]
of ABZ-[…]3-NO 2)-NH2 by KLK13 was monitored at pH range of 3 to 10 (citric acid/sodium citrate, sodium acetate/acetic acid, MES, MOPS, HEPES and TRIS buffers).
Reaction progress was monitored by fluorescence detection at the excitation and emission wavelength […]
(1 picture or pasted object on this page, not shown here)

[5] = system: KLK1, KLK2, KLK3, KLK4, KLK6, KLK8, KLK12; assay: Selectivity assessment of substrate 2: other kallikreins; format: biochemical; conditions: substrate 6.15 μM, enzymes 1.25 nM, 37 °C, 50 mM Tris-Cl pH 7.5, 1 mM EDTA, 0.5 μM heparin; fluorescence 450 nm
Description: (§1) Substrate 2 (6.15 μM) was incubated with tested kallikreins (KLK1, KLK2, KLK3, KLK4, KLK6, KLK8, KLK12, KLK13) and cathepsins (CatX, CatL, CatS, CatD, CatH, CatB), all at a concentration of 1.25 nM, at 37 °C in 50 mM Tris-Cl (pH 7.5) buffer containing 1 mM EDTA and 0.5 μM heparin. Proteolytic activity was assayed as an increase in fluorescence at 450 nm.

[6] = system: cathepsins (CatX, CatL, CatS, CatD, CatH, CatB); assay: Selectivity assessment of substrate 2: cathepsins; format: biochemical; conditions: substrate 6.15 μM, enzymes 1.25 nM, 37 °C, 50 mM Tris-Cl pH 7.5, 1 mM EDTA, 0.5 μM heparin; fluorescence 450 nm
Description: as §1

[7] = biological target: T1, KLK13; assay: Site of hydrolysis by RP-HPLC with fluorescence detection and MS; format: biochemical; parameters: His6 (the forward primers encode HHHHHH followed by DDDDK; the protein was purified on nickel) (N); made in house; host or cells: Leishmania tarentolae strain T7-TR (LEXSY), secreted to the medium; conditions: RP-HPLC with fluorescence detection coupled to MS
Description: The site of hydrolysis was determined after each step of deconvolution of primed site library and for both final substrates (1 and 2) by RP-HPLC monitored by fluorescence detection and MS.

[8] = biological target: T1, KLK13; assay: pH dependence of KLK13 activity; format: biochemical; parameters: His6 (the forward primers encode HHHHHH followed by DDDDK; the protein was purified on nickel) (N); made in house; host or cells: Leishmania tarentolae strain T7-TR (LEXSY), secreted to the medium; conditions: KLK13 1.25 nM, substrate 6.15 µM, 37 °C, buffers pH 3 to 10
Description: The pH dependence of KLK13 (1.25 nM) was established at 37 °C using substrate 2 (6.15 µM) in following buffers: citric acid/sodium citrate (pH 3), sodium acetate/acetic acid (pH 4 and 5), MES (pH 6), MOPS (pH 7), HEPES (pH 8) and TRIS (pH 9 and 10).

| Compound | Km [1] [µM] | kcat [1] [s⁻¹] | kcat/KM (specificity constant) [1] | further results |
| --- | --- | --- | --- | --- |
| ABZ-VRFRSTS-Tyr(3-NO2)-NH2 [optimized substrate differing only at the P3′ position (Ser)] | 14.7 ± 2.2 | 113.12 ± 6.87 | (7.71 ± 0.67) ×10^6 M^−1·s^−1 |  |
| CC(C)[C@H](NC(=O)CCCC[C@@H]1SC[C@@H]2NC(=O)N[C@@H]21)C(=O)N[C@@H](CCCNC(=N)N)C(=O)N[C@@H](Cc1ccccc1)C(=O)N[C@@H](CCCNC(=N)N)C(=O)CCl [Bt-VRFR-CMK, Bt-Val-Arg-Phe-Arg-CMK] (Biotin-VRFR-CH2Cl) |  |  |  | kass [2]: 49 ± 2 M⁻¹ s⁻¹ |
| CC(C)[C@H](NC(=O)COCCNC(=O)CCCC[C@@H]1SC[C@@H]2NC(=O)N[C@@H]21)C(=O)N[C@@H](CCCNC(=N)N)C(=O)N[C@@H](Cc1ccccc1)C(=O)N[C@@H](CCCNC(=N)N)C(=O)CCl [Bt-PEG-VRFR-CMK, Bt-PEG-Val-Arg-Phe-Arg-CMK] ({Biotin-AEA}-VRFR-CH2Cl) |  |  |  | kass [2]: 204 ± 23 M⁻¹ s⁻¹; Detection limit of purified KLK13 in Western blot [3]: ~15 ng |
| ABZ-VRFRSTG-Tyr(3-NO2)-NH2 [optimized substrate differing only at the P3′ position (Gly)] | 19.7 ± 3 | 169.40 ± 12.40 | (8.62 ± 0.37) ×10^6 M^−1·s^−1 |  |
| ABZ-VRFRSTE-Tyr(3-NO2)-NH2 [optimized substrate differing only at the P3′ position (Glu)] | 24.7 ± 5.8 | 91.11 ± 11.61 | (3.69 ± 0.40) ×10^6 M^−1·s^−1 |  |
| ABZ-Val-Arg-Phe-Arg-ANB-NH2 [Substrate 1, kinetically preferred non-primed fluorogenic/chromogenic KLK13 substrate] | 17.8 ± 2.8 | 94.36 ± 3.05 | over 5 × 10^6 M^−1·s^−1 | kcat/KM (specificity constant) ([1]; listed as ABZ-VRFR-ANB-NH2 (1)): (5.31 ± 0.34) ×10^6 M^−1·s^−1; KLK13 concentration at which fluorescence increase was still detectable [4]: 1.56 nM |
| ABZ-Val-Arg-Phe-Arg-Ser-Thr-Gln-Tyr(3-NO2)-NH2 [Substrate 2, internally quenched fluorogenic KLK13 substrate spanning P4-P3′] | 10 ± 1.9 | 96.43 ± 7.15 |  | Cleavage by other kallikreins relative to the activity of KLK13 [5]: ≤ 20%; Hydrolysis by cathepsins [6]: None of tested cathepsins hydrolyzed; kcat/KM (specificity constant) ([1]; listed as ABZ-VRFRSTQ-Tyr(3-NO2)-NH2 (2)): (9.64 ± 1.08) ×10^6 M^−1·s^−1; kcat/KM (specificity constant) ([1]; listed as ABZ-Val-Arg-Phe-Arg-Ser-Thr-Gln-Tyr(3-NO2)-NH2): ≈ 10^7 M^−1·s^−1; kcat/KM (specificity constant) ([1]; listed as substrate 2): ~1e+07 M⁻¹ s⁻¹; KLK13 concentration at which fluorescence increase was still detectable [4]: 0.0488 nM; Site of hydrolysis by KLK13 [7]: exclusively hydrolyzed at the Arg-Ser peptide bond; Optimal pH for processing of the substrate by KLK13 [8]: 9 |
